{"source": "patent US12502362B2", "about": "“Inhibitors of nucleotidyltransferase superfamily enzymes as antibiotics” (priority 2017, dated 2025)", "key": {"[1]": {"assay": "Cytotoxicity assay (CC50), MTS", "type": "cell-based, human", "settings": "human, HEPDES19 cells", "protocol": "(§1) To further characterize the compounds, the minimal inhibitory concentration (MIC80) were determined for selected compounds. MIC80 is defined as the compound concentration at which ≥80% bacterial growth is inhibited compare to untreated controls. Meanwhile, for the selected compounds, cytotoxicity assays (CC50) were performed on a HepG2-derived hepatoblastoma cell line (HEPDES19). […] For CC50 evaluation, soluble tetrazolium dye (MTS) was used to measure mitochondrial toxicity in a human hepatoblastoma cell line (18). The bacteria (E. coli, S. saprophyticus and A. baumannii) used in MIC80 measurements were the same as that in the primary screening, but for Staphylococcus, S. aureus is used primarily because it is a common pathogen in Staphylococcaeae family, while S. saprophyticus is part of the normal human flora."}, "[2]": {"test_system": "HepG2-derived hepatoblastoma cell line (HEPDES19)", "assay": "Cytotoxicity assay (CC50), MTS", "type": "cell-based, human", "settings": "HEPDES19 cells", "protocol": "as §1"}, "S. aureus (ATCC 29213)": {"test_system": "S. aureus (ATCC 29213)", "assay": "MIC80 on S. aureus", "type": "cell-based, Staphylococcus aureus", "settings": "≥80% growth inhibition; for MIC80: Staphylococcus aureus, ATCC 29213 / MSSA, read-out: MIC80 S. aureus, S. aureus ATCC 29213 (MSSA); for MIC80 S. aureus: S. aureus ATCC 29213 (MSSA)", "protocol": "as §1"}, "[3]": {"test_system": "S. aureus and/or S. saprophyticus", "assay": "MIC80 on S. aureus and/or S. saprophyticus", "type": "cell-based", "settings": "read-out: MIC80 against S. aureus and/or S. saprophyticus", "protocol": "as §1, with “(HEPDES19). […] For the MIC80 measurements, a 1.5 fold dilution series of the compounds was prepared in Mueller-Hinton II broth.” for “(HEPDES19).”, “flora. S. aureus (ATCC 29213) is methicillin-sensitive Staphylococcus aureus (MSSA) strain and it was used as a model strain to measure the MIC80.” for “flora.”"}, "E. coli (ATCC 35218)": {"test_system": "E. coli (ATCC 35218)", "assay": "microbe, parasite or virus in culture", "type": "cell-based", "settings": "for MIC80: Escherichia coli, ATCC35218, read-out: MIC80 E. coli, E. coli ATCC 35218; for MIC80 E. coli: E. coli ATCC 35218", "protocol": "as §1"}, "[4]": {"test_system": "Staphylococcus saprophyticus (ATCC BAA-750)", "assay": "MIC80 on S. saprophyticus", "type": "cell-based", "settings": "S. saprophyticus ATCC BAA-750, read-out: MIC80 S. sapro", "protocol": "as §1"}, "[5]": {"test_system": "Acinetobacter baumannii (Abl, from a patient)", "assay": "microbe, parasite or virus in culture", "type": "cell-based", "settings": "Acinetobacter baumannii, read-out: MIC80 A. baumannii, A. baumannii Ab1, MDR patient isolate", "protocol": "as §1"}, "[6]": {"settings": "HepG2-derived hepatoblastoma cell line (HEPDES19)"}, "[7]": {"settings": "Staphylococcus saprophyticus, ATCCBAA750"}}, "note": "Structures can show the parent of a compound that is named as a salt. Where two headings read alike, the source gives them in different places."}
{"compound": "O=c1ccc2ccccc2n1O", "note": "[Compound 43]", "values": [{"measurement": "CC50", "setting": "[1]; [6]", "value": "> 50", "unit": "µM"}, {"measurement": "CC50", "setting": "[2]", "value": "≥ 100", "unit": "µM"}, {"measurement": "MIC80", "setting": "S. aureus (ATCC 29213)", "value": 13.2, "unit": "µM"}, {"measurement": "MIC80", "setting": "[3]", "value": "< 20", "unit": "µM"}, {"measurement": "MIC80", "setting": "E. coli (ATCC 35218)", "value": 111, "unit": "µM"}, {"measurement": "MIC80", "setting": "[4]; [7]", "value": 11.4, "unit": "µM"}]}
{"compound": "CC(C)c1ccc(O)c(=O)c(O)c1", "note": "[Compound 46]", "values": [{"measurement": "CC50", "setting": "[1]", "value": "< 50", "unit": "µM"}, {"measurement": "MIC80", "setting": "S. aureus (ATCC 29213)", "value": 19.8, "unit": "µM"}, {"measurement": "MIC80", "setting": "[3]", "value": "< 20", "unit": "µM"}, {"measurement": "MIC80", "setting": "E. coli (ATCC 35218)", "value": 44.4, "unit": "µM"}, {"measurement": "MIC80", "setting": "[5]", "value": 100, "unit": "µM"}, {"measurement": "MIC80", "setting": "[4]; [7]", "value": 29.6, "unit": "µM"}]}
{"compound": "O=C(Oc1cccccc1=O)c1ccc([N+](=O)[O-])cc1", "note": "[Compound 51]", "values": [{"measurement": "CC50", "setting": "[1]; [6]", "value": "> 50", "unit": "µM"}, {"measurement": "CC50", "setting": "[2]", "value": 56, "unit": "µM"}, {"measurement": "MIC80", "setting": "S. aureus (ATCC 29213)", "value": 16.5, "unit": "µM"}, {"measurement": "MIC80", "setting": "[3]", "value": "< 20", "unit": "µM"}, {"measurement": "MIC80", "setting": "E. coli (ATCC 35218)", "value": 167, "unit": "µM"}, {"measurement": "MIC80", "setting": "[4]; [7]", "value": 15.1, "unit": "µM"}]}
{"compound": "O=c1cccccc1O", "note": "[Compound 53]", "values": [{"measurement": "CC50", "setting": "[2]", "value": "≥ 100", "unit": "µM"}, {"measurement": "MIC80 S. aureus", "setting": "S. aureus (ATCC 29213)", "value": 11.7, "unit": "µM"}, {"measurement": "MIC80 E. coli", "setting": "E. coli (ATCC 35218)", "value": ">100", "unit": "µM"}, {"measurement": "MIC80", "setting": "[4]", "value": 8.8, "unit": "µM"}]}
{"compound": "O=c1ccccc(Br)c1O", "note": "[Compound 54]", "values": [{"measurement": "CC50", "setting": "[1]; [6]", "value": "> 50", "unit": "µM"}, {"measurement": "MIC80", "setting": "S. aureus (ATCC 29213)", "value": 16.1, "unit": "µM"}, {"measurement": "MIC80", "setting": "[3]", "value": "< 20", "unit": "µM"}, {"measurement": "MIC80", "setting": "E. coli (ATCC 35218)", "value": 70.4, "unit": "µM"}, {"measurement": "MIC80", "setting": "[5]", "value": 44.4, "unit": "µM"}, {"measurement": "MIC80", "setting": "[4]; [7]", "value": 14.9, "unit": "µM"}]}
{"compound": "O=C(Oc1cccccc1=O)c1ccccc1", "note": "[Compound 62]", "values": [{"measurement": "CC50", "setting": "[1]; [6]", "value": "> 50", "unit": "µM"}, {"measurement": "MIC80", "setting": "S. aureus (ATCC 29213)", "value": 19.8, "unit": "µM"}, {"measurement": "MIC80", "setting": "[3]", "value": "< 20", "unit": "µM"}, {"measurement": "MIC80", "setting": "E. coli (ATCC 35218)", "value": 111, "unit": "µM"}, {"measurement": "MIC80", "setting": "[5]", "value": 83.4, "unit": "µM"}, {"measurement": "MIC80", "setting": "[4]; [7]", "value": 10.3, "unit": "µM"}]}
{"compound": "CC(C)C(CO)n1cc(C(=O)O)c(=O)c2cc(Cc3cccc(Cl)c3F)c(F)cc21", "note": "(stereo not shown) [Compound 75]", "values": [{"measurement": "CC50", "setting": "[2]", "value": 28, "unit": "µM"}, {"measurement": "MIC80 S. aureus", "setting": "S. aureus (ATCC 29213)", "value": 8.8, "unit": "µM"}, {"measurement": "MIC80 E. coli", "setting": "E. coli (ATCC 35218)", "value": 100, "unit": "µM"}, {"measurement": "MIC80", "setting": "[4]", "value": 15.1, "unit": "µM"}]}
{"compound": "Cc1cc(O)c(=O)c(O)cc1-c1ccc(Br)cc1", "note": "[Compound 114]", "values": [{"measurement": "CC50", "setting": "[1]; [6]", "value": "< 50", "unit": "µM"}, {"measurement": "CC50", "setting": "[2]", "value": 38, "unit": "µM"}, {"measurement": "MIC80", "setting": "S. aureus (ATCC 29213)", "value": 19.8, "unit": "µM"}, {"measurement": "MIC80", "setting": "[3]", "value": "< 20", "unit": "µM"}]}
{"compound": "Cc1cc(O)c(=O)c(O)cc1C(=O)C1CCCCC1", "note": "[Compound 120]", "values": [{"measurement": "CC50", "setting": "[1]; [6]", "value": "< 50", "unit": "µM"}, {"measurement": "MIC80", "setting": "S. aureus (ATCC 29213)", "value": 19.8, "unit": "µM"}, {"measurement": "MIC80", "setting": "[3]", "value": "< 20", "unit": "µM"}, {"measurement": "MIC80", "setting": "E. coli (ATCC 35218)", "value": 44.4, "unit": "µM"}, {"measurement": "MIC80", "setting": "[5]", "value": 83.4, "unit": "µM"}]}
{"compound": "CC1=C(C#N)C(O)=NC(=O)/C1=C\\c1ccc(-c2ccccc2)o1", "note": "[Compound 140]", "values": [{"measurement": "CC50", "setting": "[1]; [6]", "value": "< 50", "unit": "µM"}, {"measurement": "CC50", "setting": "[2]", "value": 42, "unit": "µM"}, {"measurement": "MIC80", "setting": "S. aureus (ATCC 29213)", "value": 3.9, "unit": "µM"}, {"measurement": "MIC80", "setting": "[3]", "value": "< 20", "unit": "µM"}, {"measurement": "MIC80", "setting": "E. coli (ATCC 35218)", "value": "> 100", "unit": "µM"}, {"measurement": "MIC80", "setting": "[4]; [7]", "value": 12.7, "unit": "µM"}]}
{"compound": "O=c1cc(Cc2ccc(Br)cc2)c2cccnc2n1O", "note": "[Compound 149, 4-[(4-bromophenyl)methyl]-1-hydroxy-1,8-naphthyridin-2-one hydrobromide]", "values": [{"measurement": "MIC80", "setting": "E. coli (ATCC 35218)", "value": "> 100", "unit": "µM"}, {"measurement": "MIC80", "setting": "[4]; [7]", "value": 2.5, "unit": "µM"}]}
{"compound": "O=c1cc(-c2ccccc2)c2cccnc2n1O", "note": "[Compound 154, 1-hydroxy-4-phenyl-1,8-naphthyridin-2-one]", "values": [{"measurement": "CC50", "setting": "[1]; [6]", "value": 4, "unit": "µM"}, {"measurement": "MIC80", "setting": "[3]", "value": "< 20", "unit": "µM"}, {"measurement": "MIC80 E. coli", "setting": "E. coli (ATCC 35218)", "value": 21.9, "unit": "µM"}, {"measurement": "MIC80", "setting": "E. coli (ATCC 35218)", "value": "< 30", "unit": "µM"}, {"measurement": "MIC80", "setting": "[4]; [7]", "value": 17.8, "unit": "µM"}]}
{"compound": "O=c1c(O)ccc(-c2ccccc2)cc1O", "note": "[Compound 262]", "values": [{"measurement": "CC50", "setting": "[1]; [6]", "value": "> 50", "unit": "µM"}, {"measurement": "CC50", "setting": "[2]", "value": 57, "unit": "µM"}, {"measurement": "MIC80", "setting": "S. aureus (ATCC 29213)", "value": 19.8, "unit": "µM"}, {"measurement": "MIC80", "setting": "[3]", "value": "< 20", "unit": "µM"}, {"measurement": "MIC80", "setting": "E. coli (ATCC 35218)", "value": 66.7, "unit": "µM"}, {"measurement": "MIC80", "setting": "[5]", "value": 100, "unit": "µM"}, {"measurement": "MIC80", "setting": "[4]; [7]", "value": 19.8, "unit": "µM"}]}
